Earlier results on three molecules are cited in patent US20120082623A1, “SHH Regulation and Methods Thereof” (priority 2009, published 2012).

Molecules are shown by their SMILES.

One series has as its system ALS patients. As to conditions: cited from earlier work.
Series [1] deals with T1, GDNF family receptor (GFR)α1 (Mus musculus, UniProt P97785).
T1 construct: host or cells: Neuro-2A cells
T1 sequence (P97785 25-430): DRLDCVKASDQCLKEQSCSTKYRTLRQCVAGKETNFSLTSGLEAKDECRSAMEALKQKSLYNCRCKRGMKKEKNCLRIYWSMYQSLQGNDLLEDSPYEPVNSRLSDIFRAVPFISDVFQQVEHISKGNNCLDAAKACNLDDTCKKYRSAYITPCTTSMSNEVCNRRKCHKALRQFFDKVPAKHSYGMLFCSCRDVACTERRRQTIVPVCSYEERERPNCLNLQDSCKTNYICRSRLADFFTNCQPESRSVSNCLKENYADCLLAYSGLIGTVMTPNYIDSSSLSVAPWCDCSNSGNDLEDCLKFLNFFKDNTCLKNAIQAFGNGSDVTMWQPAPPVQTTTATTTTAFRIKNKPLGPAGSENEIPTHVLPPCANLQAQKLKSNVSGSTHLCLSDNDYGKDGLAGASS
The following applies: Neuro-2A cells; cited from earlier work.

The test system of another series is SVZ derived EGFR+ cells. The following applies: neurospheres, dose dependent manner; cited from earlier work.

For `Nc1nc2ccc(OC(F)(F)F)cc2s1` [Riluzole], in the series on ALS patients, the measures of function entry was “has not been shown to have significant effect on measures of function”. Turning to `CCN(CC)CCCC(C)Nc1cc(/C=C/c2ccccc2Cl)nc2cc(Cl)ccc12` (stereo not drawn) [XIB4035], the neurotrophic effects result in series [1] was “mimics the neurotrophic effects of GDNF”. Turning to `NCCc1ccc(O)c(O)c1` [dopamine], the “proliferation of SVZ derived EGFR+ cells” value in the series on SVZ derived EGFR+ cells is given as “increased the proliferation of SVZ derived EGFR+ cells”.
